# Results from paper PMC9031804, “The Peptide-Drug Conjugate TH1902: A New Sortilin Receptor-Mediated Cancer Therapeutic against Ovarian and Endometrial Cancers” (Cancers, 2022).
# Tests used:
# A2780 cells = assay: Cell proliferation, MTT assay, A2780; assay type: cell-based; conditions: Homo sapiens, 72 h, mean ± SD, n = 3 to 5, read-out: IC50, anti-proliferative activity
# Experimental: (§1) To assess the effects of docetaxel and TH1902 on ovarian and endometrial cancer cell proliferation, cells (ES-2: 3000 cells/well, SKOV3: 1000 cells/well, A2780: 7000 cells/well, AN3-CA: 7000 cells/well) were first seeded in 96-well plates (Perkin Elmer, Guelph, ON, Canada), then treated with various concentrations of drugs in complete cell culture medium. After 72 h of incubation for ES-2, A2780 and AN3-CA cells, or 96 h for SKOV3 cells, cell proliferation was measured using the 3-(4,5-dimethylthiazol-2-yl)-2,5-diphenyltetrazolium bromide (MTT) as described previously. Analyses were made in quadruplicate for each condition.
# [1] = Mice weights, SKOV3 xenograft study; assay type: in vivo; conditions: docetaxel 15 mg/kg, three weekly cycles
# Experimental: (§2) Tumor xenografts were established by subcutaneous inoculation of 5 × 10^6 cells (ES-2) or 7 × 10^6 cells (SKOV3) in 150 µL of HBSS; other xenografts were established by subcutaneous inoculation of 5 × 10^6 cells (A2780) or 2 × 10^6 cells (AN3-CA) in 150 µL of HBSS/Matrigel (50:50). All cells were injected into the right flanks of immunodeficient mice under light isoflurane anesthesia. The injection schedules and doses of injected substances are detailed in the figures. Briefly, when palpable ES-2, SKOV3 or AN3-CA tumors reached a volume of ~100 mm^3, mice were treated weekly with either vehicle, docetaxel (3.75 or 15 mg/kg) or TH1902 (8.75 or 35 mg/kg) at equivalent docetaxel amounts via intravenous (IV) tail vein injection. Note that three cycles of 15 mg/kg docetaxel is the maximum tolerated dose in mice and that 35 mg/kg TH1902 contains the same quantity of docetaxel (bis-linked to the peptide). […] Tumor growth was monitored by two-dimensional measurements taken with an electronic caliper and tumor volume was calculated according to the following formula: tumor volume (mm^3) = π/6 × length × width^2. Data are expressed as mean ± SEM and were analyzed using GraphPad Prism software. […]
# [2] = Mice weights, A2780 xenograft study; assay type: in vivo; conditions: docetaxel 10 mg/kg IV, three cycles
# Experimental: as §2
# [3] = Mice weights, ES-2 xenograft study; assay type: in vivo; conditions: ES-2 study
# [4] = test system: AN3-CA endometrial cancer xenografts; assay: AN3-CA endometrial cancer xenograft tumor growth; assay type: in vivo, human tumor in female athymic nude mice; conditions: for Tumor progression, Size Increase (x-Fold Day-0): vehicle group endpoint Day 14, n = 6 mice/group
# From the text: (§3) Animals were obtained from Charles River Laboratories, Inc. and allowed to acclimate for 5 days before experiments. Female CD-1 nude mice (Crl:CD1-Foxn1^nu, 4–6 weeks old; ES-2) or athymic nude mice (Crl:NU(NCr)-Foxn1^nu, 4–6 weeks old; SKOV3, A2780, AN3-CA) were used for the xenograft tumor models. Mice were maintained in a pathogen-free environment and handled in accordance with the Guidelines of the Canadian Council on Animal Care. Animal protocols were approved by the Institutional Animal Care and Use Committee of Université du Québec à Montréal (0620-C1R1-897-0621).
# (§4) Tumor xenografts were established by subcutaneous inoculation of 5 × 10^6 cells (ES-2) or 7 × 10^6 cells (SKOV3) in 150 µL of HBSS; other xenografts were established by subcutaneous inoculation of 5 × 10^6 cells (A2780) or 2 × 10^6 cells (AN3-CA) in 150 µL of HBSS/Matrigel (50:50). All cells were injected into the right flanks of immunodeficient mice under light isoflurane anesthesia. The injection schedules and doses of injected substances are detailed in the figures. Briefly, when palpable ES-2, SKOV3 or AN3-CA tumors reached a volume of ~100 mm^3, mice were treated weekly with either vehicle, docetaxel (3.75 or 15 mg/kg) or TH1902 (8.75 or 35 mg/kg) at equivalent docetaxel amounts via intravenous (IV) tail vein injection. Note that three cycles of 15 mg/kg docetaxel is the maximum tolerated dose in mice and that 35 mg/kg TH1902 contains the same quantity of docetaxel (bis-linked to the peptide). In A2780 xenografts, when palpable tumors reached a volume of ~250 mm^3, mice were treated with either vehicle, paclitaxel (10 mg/kg, IV), carboplatin (40 mg/kg, intraperitoneal (IP)), docetaxel (10 mg/kg, IV) or TH1902 (23 mg/kg, IV) bi-weekly as single agents or once on Day-0 as combinations with carboplatin. For combination treatments, both taxanes and TH1902 were injected 1 h following carboplatin administrations at the doses previously described. Injectable solutions were prepared as follows: TH1902 was solubilized at 10 mg/mL in 10% Tween-80 in D5W (pH 4.3, w/v) then further diluted with D5W; docetaxel was solubilized at 25 mg/mL in ethanol and Tween-80 (50/50, v/v) then further diluted with D5W; paclitaxel was solubilized at 25 mg/mL in ethanol and Cremophor EL (50/50, v/v) then further diluted in saline; carboplatin was solubilized at 50 mg/mL in water then further diluted in a solution of 30% PEG400 and 5% Tween-80 in D5W (w/v); vehicle composition and preparation mimicked highest dose of TH1902 preparation. Tumor growth was monitored by two-dimensional measurements taken with an electronic caliper and tumor volume was calculated according to the following formula: tumor volume (mm^3) = π/6 × length × width^2. Data are expressed as mean ± SEM and were analyzed using GraphPad Prism software.
# [5] = Mice weights, AN3-CA xenograft study; assay type: in vivo; conditions: docetaxel high dose 15 mg/kg, reversed when dosage was halved
# Experimental: as §2
# [6] = test system: ES-2 ovarian cancer xenografts; assay: ES-2 ovarian cancer xenograft tumor growth; assay type: in vivo, human tumor in female CD-1 nude mice; conditions: for Tumor progression, Size Increase (x-Fold Day-0): vehicle group endpoint Day 18, n = 6 mice/group
# From the text: as §3
# Tumor xenografts were established by subcutaneous inoculation of 5 × 10^6 cells (ES-2) or 7 × 10^6 cells (SKOV3) in 150 µL of HBSS; other xenografts were established by subcutaneous inoculation of 5 × 10^6 cells (A2780) or 2 × 10^6 cells (AN3-CA) in 150 µL of HBSS/Matrigel (50:50). All cells were injected into the right flanks of immunodeficient mice under light isoflurane anesthesia. The injection schedules and doses of injected substances are detailed in the figures. […] Note that three cycles of 15 mg/kg docetaxel is the maximum tolerated dose in mice and that 35 mg/kg TH1902 contains the same quantity of docetaxel (bis-linked to the peptide). […] Tumor growth was monitored by two-dimensional measurements taken with an electronic caliper and tumor volume was calculated according to the following formula: tumor volume (mm^3) = π/6 × length × width^2. Data are expressed as mean ± SEM and were analyzed using GraphPad Prism software.
# Figure 6 Effects of docetaxel and TH1902 on ES-2 and SKOV3 ovarian cancer xenografts. […] Immunodeficient mice bearing subcutaneous ES-2 (A) or SKOV3 (B) tumors were intravenously injected weekly with either vehicle, docetaxel (at its MTD and quarter MTD doses; 15 and 3.75 mg/kg, respectively), or TH1902 (at a dosage which contains a quantity of bound docetaxel equal to the docetaxel doses; 35 and 8.75 mg/kg, respectively), as described in the methods section. […]
# [7] = ref [38]; cited from earlier work
# From the text: Taxanes, mainly paclitaxel and docetaxel, are well-known microtubule stabilizers used in various cancer including ovarian and endometrial cancer first-line therapies in the last thirty years. […] Here, the new chemical entity TH1902 is distinct from the docetaxel molecule as it selectively exploits SORT1’s internalization properties to trigger cell apoptosis in ES-2 and ...
# SKOV3 cells = assay: Cell proliferation, MTT assay, SKOV3; assay type: cell-based; conditions: Homo sapiens, SK-OV-3, 96 h, mean ± SD, n = 3 to 5, read-out: IC50, anti-proliferative activity
# Experimental: as §1
# [8] = test system: A2780 ovarian cancer xenografts; assay: A2780 ovarian cancer xenograft tumor growth; assay type: in vivo, human tumor in female athymic nude mice; conditions: single agent 10 mg/kg IV bi-weekly
# From the text: as §3, §4
# Figure 8 Effects of TH1902 and carboplatin combinations on A2780 ovarian cancer xenografts. A2780 cells were subcutaneously implanted in the flanks of athymic nude mice. Tumor volume measurements following bi-weekly administrations of (A) vehicle, docetaxel, TH1902, paclitaxel or carboplatin as single agents, or (B) administered once in combination using the same dosage as described in the methods section. Colored dots below indicate drug treatments for all groups. Data are represented as mean ± SEM (n = 5 mice/group).
# [9] = test system: SKOV3 ovarian cancer xenografts; assay: SKOV3 ovarian cancer xenograft tumor growth; assay type: in vivo, human tumor in female athymic nude mice; conditions: for Tumor progression, Size Increase (x-Fold Day-0): vehicle endpoint Day 28, n = 6 mice/group
# From the text: as §3
# Tumor xenografts were established by subcutaneous inoculation of 5 × 10^6 cells (ES-2) or 7 × 10^6 cells (SKOV3) in 150 µL of HBSS; other xenografts were established by subcutaneous inoculation of 5 × 10^6 cells (A2780) or 2 × 10^6 cells (AN3-CA) in 150 µL of HBSS/Matrigel (50:50). All cells were injected into the right flanks of immunodeficient mice under light isoflurane anesthesia. The injection schedules and doses of injected substances are detailed in the figures. Briefly, when palpable ES-2, SKOV3 or AN3-CA tumors reached a volume of ~100 mm^3, mice were treated weekly with either vehicle, docetaxel (3.75 or 15 mg/kg) or TH1902 (8.75 or 35 mg/kg) at equivalent docetaxel amounts via intravenous (IV) tail vein injection. Note that three cycles of 15 mg/kg docetaxel is the maximum tolerated dose in mice and that 35 mg/kg TH1902 contains the same quantity of docetaxel (bis-linked to the peptide). In A2780 xenografts, when palpable tumors reached a volume of ~250 mm^3, mice were treated with either vehicle, paclitaxel (10 mg/kg, IV), carboplatin (40 mg/kg, intraperitoneal (IP)), docetaxel (10 mg/kg, IV) or TH1902 (23 mg/kg, IV) bi-weekly as single agents or once on Day-0 as combinations with carboplatin. […] Tumor growth was monitored by two-dimensional measurements taken with an electronic caliper and tumor volume was calculated according to the following formula: tumor volume (mm^3) = π/6 × length × width^2. Data are expressed as mean ± SEM and were analyzed using GraphPad Prism software.
# Figure 6 Effects of docetaxel and TH1902 on ES-2 and SKOV3 ovarian cancer xenografts. […] Immunodeficient mice bearing subcutaneous ES-2 (A) or SKOV3 (B) tumors were intravenously injected weekly with either vehicle, docetaxel (at its MTD and quarter MTD doses; 15 and 3.75 mg/kg, respectively), or TH1902 (at a dosage which contains a quantity of bound docetaxel equal to the docetaxel doses; 35 and 8.75 mg/kg, respectively), as described in the methods section. Mice in the ES-2 study were euthanized at vehicle group endpoint (Day 18), whereas indicated groups in SKOV3 study were monitored for a prolonged period up to Day 46 post start of treatments.
# [10] = mice; three (weekly) cycles; ref [31]; cited from earlier work
# ES-2 cells = assay: Cell proliferation, MTT assay, ES-2; assay type: cell-based; conditions: Homo sapiens, 72 h, mean ± SD, n = 3 to 5, read-out: IC50, anti-proliferative activity
# Experimental: as §1
compound,measurement,setting,value
"CC(=O)O[C@@]12CO[C@@H]1C[C@H](O)[C@@]1(C)C(=O)[C@H](O)C3=C(C)[C@@H](OC(=O)[C@H](O)[C@@H](NC(=O)OC(C)(C)C)c4ccccc4)C[C@@](O)([C@@H](OC(=O)c4ccccc4)[C@H]21)C3(C)C [Docetaxel, docetaxel]",IC50,A2780 cells,1.76 ± 0.38 nM
same,Body weight loss,[1],> 10%
same,"Body weight loss, in words",[1],severe weight loss
same,"Body weight loss, in words",[2],significant body weight loss
same,Tolerability / body weight,"[3]; docetaxel high dose 15 mg/kg, three weekly cycles, vs initial weight",small weight loss
same,Tolerability / body weight,[3]; docetaxel low dose 3.75 mg/kg weekly,well-tolerated with slight weight gain
same,"Tumor progression, Size Increase (x-Fold Day-0)",[4]; docetaxel 3.75 mg/kg IV weekly,12.07 x-Fold Day-0
same,"Tumor progression, Size Increase (x-Fold Day-0)",[4]; docetaxel 15 mg/kg IV weekly,0.79 x-Fold Day-0
same,Tumor response on prolonged monitoring,"[4]; docetaxel high dose 15 mg/kg (halved for final two treatments), before end of treatments",unresponsive and regrew before the end of treatments
same,Tumor regression,"[4]; docetaxel high dose 15 mg/kg, vs vehicle endpoint",induced tumor regressions
same,"Body weight loss, in words",[5],Rapid weight loss
same,"Tumor progression, Size Increase (x-Fold Day-0)",[6]; docetaxel 3.75 mg/kg IV weekly,10.08 x-Fold Day-0
same,"Tumor progression, Size Increase (x-Fold Day-0)",[6]; docetaxel 15 mg/kg IV weekly,8.31 x-Fold Day-0
same,Effect on tumor growth,"[6]; docetaxel, both 3.75 and 15 mg/kg IV weekly",produced little effect
same,Water solubility,[7],very poor water solubility
same,IC50,SKOV3 cells,0.61 ± 0.1 nM
same,Tumor growth inhibition,[8],43%
same,"Tumor progression, Size Increase (x-Fold Day-0)","[8]; vehicle group endpoint, n = 5 mice/group",4.13 x-Fold Day-0
same,"Tumor progression, Size Increase (x-Fold Day-0)",[9]; docetaxel 3.75 mg/kg IV weekly,9.70 x-Fold Day-0
same,"Tumor progression, Size Increase (x-Fold Day-0)",[9]; docetaxel 15 mg/kg IV weekly,2.25 x-Fold Day-0
same,Tumor regrowth on prolonged monitoring,"[9]; docetaxel high dose 15 mg/kg, prolonged monitoring","could not sustain this effect, which is marked by tumor regrowth"
same,Tumor growth inhibition,"[9]; docetaxel high dose 15 mg/kg, vs vehicle endpoint Day 28",84%
same,Maximum tolerated dose,[10],15 mg/kg
same,IC50,ES-2 cells,2.24 ± 0.99 nM
